Square brackets hold non-standard residues; d marks the D form. Peptide text beside a SMILES is read from it. dTrp(2-Me) = Cc1[nH]c2ccccc2c1C[C@@H](N)C(=O)O

We go through two compounds from US11690804B2, “Targeted delivery of therapeutic agents to human adipocytes” (AptamiR Therapeutics, Inc., priority 2018, dated 2023).

For assay [1], the system named is human subcutaneous adipocytes. In words: Transport of green fluorescent Hexarelin into primary cultures of human subcutaneous adipocytes (fluorescence microscopy). The assay is classed as cell-based. As to conditions: green fluorescent probe, primary culture. The text has this: In vitro validation of HexamiRs targeted delivery of functional miRNAs: The ability of the HexamiRs to target and deliver ss-miRNA analogs to adipocytes will evaluated in a model of primary cultures of human subcutaneous adipocytes. The first experimental step was to confirm that Hexarelin is efficiently transported into human mature adipocytes, using an in vitro protocol of primary cultures of human subcutaneous adipocytes. To test this, hexarelin labeled with a green fluorescent probe was incubated with cultured adipocytes.

Assay [2] deals with MKR insulin-resistant mice. As to conditions: cited from earlier work.
The subject of assay [3] is human subcutaneous adipocytes. In words: Transport of green fluorescent labeled fatty acids into primary cultures of human subcutaneous adipocytes (fluorescence microscopy). The assay is classed as cell-based. As to conditions: green fluorescent probe, primary culture. How it is done: In vitro validation of AdipomiRs targeted delivery of functional miRNAs: The ability of the AdipomiRs to target and deliver ss-miRNA analogs to adipocytes was evaluated in a model of primary cultures of human subcutaneous adipocytes. The first experimental step was to confirm that fatty acids are efficiently transported into human mature adipocytes, using the inventor's in vitro protocol of primary cultures of human subcutaneous adipocytes. To test this, fatty acids such as palmitic and […] acids were labeled with a green fluorescent probe and incubated with cultured adipocytes.

Take `Cc1[nH]c2ccccc2c1C[C@@H](NC(=O)[C@@H](N)Cc1cnc[nH]1)C(=O)N[C@@H](C)C(=O)N[C@@H](Cc1c[nH]c2ccccc12)C(=O)N[C@H](Cc1ccccc1)C(=O)N[C@@H](CCCCN)C(N)=O` [Hexarelin, His-D-2-Me-Trp-Ala-Trp-D-Phe-Lys-NH2] (H-H[dTrp(2-Me)]AW[dF]K-NH2): the “transport of labeled hexarelin into the cytoplasm of human adipocytes” value in assay [1] is reported as “very efficiently transported”. Also, in assay [2], the “glucose and insulin intolerance” value was “significantly improved”; the “plasma and liver triglycerides” value is “decreased”.
Regarding `CCCCCCCCCCCCCCCC(=O)O` [palmitic acid, Palmitic Acid], in assay [3], the “transport of labeled fatty acids by human adipocytes” value is “very efficiently transported”.
